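How tested: cells in 96-well plates exposed to compound for 48 hours at five concentrations. TGI marks complete inhibition of growth.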
What was measured:
Test in all cases: NCI anticancer screen, dose series, 48 h
MALME-3M melanoma = tested on: MALME-3M melanoma
NCI/ADR-RES ovarian = tested on: NCI/ADR-RES ovarian
MCF7 breast = tested on: MCF7 breast
M14 melanoma = tested on: M14 melanoma
UO-31 renal = tested on: UO-31 renal
UACC-62 melanoma = tested on: UACC-62 melanoma
SK-MEL-5 melanoma = tested on: SK-MEL-5 melanoma
KM12 colon = tested on: KM12 colon
786-0 renal = tested on: 786-0 renal
HL-60(TB) leukemia = tested on: HL-60(TB) leukemia
DU-145 prostate = tested on: DU-145 prostate
U251 CNS = tested on: U251 CNS
NCI-H23 lung = tested on: NCI-H23 lung
HOP-62 NSCLC = tested on: HOP-62 NSCLC
COLO 205 colon = tested on: COLO 205 colon
ACHN renal = tested on: ACHN renal
OVCAR-8 ovarian = tested on: OVCAR-8 ovarian
SNB-19 CNS = tested on: SNB-19 CNS
T-47D breast = tested on: T-47D breast
HOP-92 NSCLC = tested on: HOP-92 NSCLC
HT29 colon = tested on: HT29 colon
SK-OV-3 ovarian = tested on: SK-OV-3 ovarian
NCI-H460 lung = tested on: NCI-H460 lung
UACC-257 melanoma = tested on: UACC-257 melanoma
SNB-75 CNS = tested on: SNB-75 CNS
HCT-15 colon = tested on: HCT-15 colon
SF-539 CNS = tested on: SF-539 CNS
LOX IMVI melanoma = tested on: LOX IMVI melanoma
SK-MEL-28 melanoma = tested on: SK-MEL-28 melanoma
MOLT-4 leukemia = tested on: MOLT-4 leukemia
OVCAR-5 ovarian = tested on: OVCAR-5 ovarian
SN12C renal = tested on: SN12C renal
TK-10 renal = tested on: TK-10 renal
SF-268 CNS = tested on: SF-268 CNS
IGROV1 ovarian = tested on: IGROV1 ovarian
OVCAR-4 ovarian = tested on: OVCAR-4 ovarian
SR leukemia = tested on: SR leukemia
K-562 leukemia = tested on: K-562 leukemia
A498 renal = tested on: A498 renal
EKVX NSCLC = tested on: EKVX NSCLC
NCI-H226 lung = tested on: NCI-H226 lung
A549 NSCLC = tested on: A549 NSCLC
CCRF-CEM leukemia = tested on: CCRF-CEM leukemia
HCC-2998 colon = tested on: HCC-2998 colon
SF-295 CNS = tested on: SF-295 CNS
HCT-116 colon = tested on: HCT-116 colon
MDA-MB-435 = tested on: MDA-MB-435
MDA-MB-231 breast = tested on: MDA-MB-231 breast
SW-620 colon = tested on: SW-620 colon
RXF 393 renal = tested on: RXF 393 renal
RPMI-8226 leukemia = tested on: RPMI-8226 leukemia
OVCAR-3 ovarian = tested on: OVCAR-3 ovarian
HS 578T breast = tested on: HS 578T breast
PC-3 prostate = tested on: PC-3 prostate
SK-MEL-2 melanoma = tested on: SK-MEL-2 melanoma
NCI-H522 lung = tested on: NCI-H522 lung

O=C1NC2(CCN(CCCC3(c4ccc(F)cc4)OCCO3)CC2)Oc2ccccc21
TGI (MALME-3M melanoma): > 100 µM
TGI (NCI/ADR-RES ovarian): > 100 µM
TGI (MCF7 breast): > 100 µM
TGI (M14 melanoma): > 100 µM
TGI (UO-31 renal): > 100 µM
TGI (UACC-62 melanoma): > 100 µM
TGI (SK-MEL-5 melanoma): > 100 µM
TGI (KM12 colon): > 100 µM
TGI (786-0 renal): > 100 µM
TGI (HL-60(TB) leukemia): > 100 µM
TGI (DU-145 prostate): > 100 µM
TGI (U251 CNS): > 100 µM
TGI (NCI-H23 lung): > 100 µM
TGI (HOP-62 NSCLC): > 100 µM
TGI (COLO 205 colon): > 100 µM
TGI (ACHN renal): > 100 µM
TGI (OVCAR-8 ovarian): > 100 µM
TGI (SNB-19 CNS): > 100 µM
TGI (T-47D breast): > 100 µM
TGI (HOP-92 NSCLC): > 100 µM
TGI (HT29 colon): > 100 µM
TGI (SK-OV-3 ovarian): > 100 µM
TGI (NCI-H460 lung): > 100 µM
TGI (UACC-257 melanoma): > 100 µM
TGI (SNB-75 CNS): > 100 µM
TGI (HCT-15 colon): > 100 µM
TGI (SF-539 CNS): > 100 µM
TGI (LOX IMVI melanoma): > 100 µM
TGI (SK-MEL-28 melanoma): > 100 µM
TGI (MOLT-4 leukemia): > 100 µM
TGI (OVCAR-5 ovarian): > 100 µM
TGI (SN12C renal): > 100 µM
TGI (TK-10 renal): > 100 µM
TGI (SF-268 CNS): > 100 µM
TGI (IGROV1 ovarian): > 100 µM
TGI (OVCAR-4 ovarian): > 100 µM
TGI (SR leukemia): > 100 µM
TGI (K-562 leukemia): > 100 µM
TGI (A498 renal): 80.5 µM
TGI (EKVX NSCLC): > 100 µM
TGI (NCI-H226 lung): > 100 µM
TGI (A549 NSCLC): > 100 µM
TGI (CCRF-CEM leukemia): > 100 µM
TGI (HCC-2998 colon): > 100 µM
TGI (SF-295 CNS): > 100 µM
TGI (HCT-116 colon): > 100 µM
TGI (MDA-MB-435): > 100 µM
TGI (MDA-MB-231 breast): > 100 µM
TGI (SW-620 colon): > 100 µM
TGI (RXF 393 renal): > 100 µM
TGI (RPMI-8226 leukemia): > 100 µM

O=C1OC(OCC#CCOC2OC(=O)C(Cl)=C2Cl)C(Cl)=C1Cl (stereo not given)
TGI (NCI/ADR-RES ovarian): 75.3 µM
TGI (MCF7 breast): 21.8 µM
TGI (M14 melanoma): 23.9 µM
TGI (UO-31 renal): 24 µM
TGI (UACC-62 melanoma): 38.3 µM
TGI (SK-MEL-5 melanoma): 43.4 µM
TGI (KM12 colon): 39.3 µM
TGI (786-0 renal): 16.8 µM
TGI (DU-145 prostate): 38.2 µM
TGI (NCI-H23 lung): 40.9 µM
TGI (HOP-62 NSCLC): 26.7 µM
TGI (OVCAR-3 ovarian): 30.7 µM
TGI (ACHN renal): 30.5 µM
TGI (OVCAR-8 ovarian): 20.8 µM
TGI (SNB-19 CNS): 42.5 µM
TGI (T-47D breast): 36.7 µM
TGI (HT29 colon): 18.1 µM
TGI (HS 578T breast): 50.5 µM
TGI (PC-3 prostate): 27.1 µM
TGI (NCI-H460 lung): 58.9 µM
TGI (UACC-257 melanoma): 32.3 µM
TGI (SK-MEL-2 melanoma): 32.2 µM
TGI (SNB-75 CNS): 28.4 µM
TGI (HCT-15 colon): 27.3 µM
TGI (SF-539 CNS): 31.8 µM
TGI (LOX IMVI melanoma): 11.1 µM
TGI (NCI-H522 lung): 3.72 µM
TGI (SK-MEL-28 melanoma): 30.1 µM
TGI (MOLT-4 leukemia): 6.17 µM
TGI (OVCAR-5 ovarian): 33.2 µM
TGI (SN12C renal): 32.5 µM
TGI (TK-10 renal): 21.8 µM
TGI (SF-268 CNS): 46.8 µM
TGI (IGROV1 ovarian): 29.9 µM
TGI (SR leukemia): 4.99 µM
TGI (EKVX NSCLC): 40.1 µM
TGI (A549 NSCLC): 38.9 µM
TGI (CCRF-CEM leukemia): 4.63 µM
TGI (HCC-2998 colon): 14.3 µM
TGI (SF-295 CNS): 60.4 µM
TGI (HCT-116 colon): 21.8 µM
TGI (MDA-MB-435): 27.2 µM
TGI (SW-620 colon): 18.4 µM
TGI (RPMI-8226 leukemia): 11.9 µM

From PubChem BioAssay (NCI)
